structure (smiles),measurement,value
"CC(C)(C)OC(=O)N[C@@H](CC(C(F)(F)F)C(F)(F)F)C(=O)O [Peptide 5, N-Boc-5,5,5,5′,5′,5′-(S)-Hexafluoroleucine]",melting point,85 to 91 °C

# Source: patent US7371867B2, “Non-racemic trifluoroleucine, and methods of making and using” (Trustees of Tufts College, priority 2001, dated 2008)
